Experimental data taken from patent publication US20080009418A1, “Selective Inhibitors” (Alchemia LTD., priority 2004, published 2008).

Legend:
Human δ-opioid (DOP) = biological target: T1, Human δ-opioid (DOP) (Homo sapiens, UniProt P41143); test: Radioligand binding, human δ-opioid (DOP) membranes, FlashPlate, [3H]-Bremazocine; details: compound at 10 μM, [3H]-Bremazocine
T1 construct: purchased Perkin Elmer Biosignal
Method in brief: (§1)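 Cloned human receptor membranes were coated onto FlashPlate wells and incubated with radioligand and compound (added from a 0.5 mM DMSO daughter plate) for 1 hour at room temperature in the dark. Scintillation counting gave percent inhibition, with DMSO defining total and reference ligand defining non-specific binding.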

Human κ-Opioid (KOP) = biological target: T2, Human κ-Opioid (KOP) (Homo sapiens, UniProt P41145); test: Radioligand binding, human κ-opioid (KOP) membranes, filtration, [3H]-Diprenorphine; details: compound at 10 μM, [3H]-Diprenorphine
T2 construct: purchased Perkin Elmer Biosignal
Method in brief: (§2)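 Filtration binding on cloned human receptor membranes (1 Unit/well), [125I]-Substance P for NK1 and [3H]-Diprenorphine for KOP, 1 h at room temperature. Filters PEI-presoaked, washed with cold 50 mM Tris-HCl pH 7.4, counted by scintillation; percent inhibition calculated, reference ligand defining non-specific binding.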

Human Melanocortin (MC3) = biological target: T3, Human Melanocortin (MC3) (Homo sapiens, UniProt P41968); test: Radioligand binding, human melanocortin MC3 membranes, FlashPlate, [125I]-NDP-αMSH; details: compound at 10 μM, [125I]-NDP-αMSH
T3 construct: purchased Perkin Elmer Biosignal
Method in brief: as §1

Human Melanocortin (MC4) = biological target: T4, Human Melanocortin (MC4) (Homo sapiens, UniProt P32245); test: Radioligand binding, human melanocortin MC4 membranes, FlashPlate, [125I]-NDP-αMSH; details: compound at 10 μM, [125I]-NDP-αMSH
T4 construct: purchased Perkin Elmer Biosignal
Method in brief: as §1

Human melanocortin (MC5) = biological target: T5, Human melanocortin (MC5) (Homo sapiens, UniProt P33032); test: Radioligand binding, human melanocortin MC5 membranes, FlashPlate, [125I]-NDP-αMSH; details: compound at 10 μM, [125I]-NDP-αMSH
T5 construct: purchased Perkin Elmer Biosignal
Method in brief: as §1

[1] = biological target: T6, Human melanin-concentrating hormone (MCH1) (Homo sapiens, UniProt Q99705); test: Radioligand binding, human melanin-concentrating hormone MCH1 membranes, FlashPlate, [125I]-S36057; details: compound at 10 μM
T6 construct: purchased Perkin Elmer Biosignal
Method in brief: as §1

Human μ-opioid (MOP) = biological target: T7, Human μ-opioid (MOP) (Homo sapiens, UniProt P35372); test: Radioligand binding, human μ-opioid (MOP) membranes, FlashPlate, [3H]-Naloxone; details: compound at 10 μM, [3H]-Naloxone
T7 construct: purchased Perkin Elmer Biosignal
Method in brief: as §1

Human neurokinin (NK1) = biological target: T8, Human neurokinin (NK1) (Homo sapiens, UniProt P25103); test: Radioligand binding, human neurokinin NK1 membranes, filtration, [125I]-Substance P; details: compound at 10 μM, [125I]-Substance P
T8 construct: purchased Perkin Elmer Biosignal
Method in brief: as §2

[2] = biological target: T9, Human neuropeptide Y (NPY-Y1) (Homo sapiens, UniProt P25929); test: Radioligand binding, human neuropeptide Y NPY-Y1 membranes, FlashPlate, [125I]-PYY; details: compound at 10 μM, [125I]-PYY
T9 construct: purchased Perkin Elmer Biosignal
T9 sequence (P25929 1-384): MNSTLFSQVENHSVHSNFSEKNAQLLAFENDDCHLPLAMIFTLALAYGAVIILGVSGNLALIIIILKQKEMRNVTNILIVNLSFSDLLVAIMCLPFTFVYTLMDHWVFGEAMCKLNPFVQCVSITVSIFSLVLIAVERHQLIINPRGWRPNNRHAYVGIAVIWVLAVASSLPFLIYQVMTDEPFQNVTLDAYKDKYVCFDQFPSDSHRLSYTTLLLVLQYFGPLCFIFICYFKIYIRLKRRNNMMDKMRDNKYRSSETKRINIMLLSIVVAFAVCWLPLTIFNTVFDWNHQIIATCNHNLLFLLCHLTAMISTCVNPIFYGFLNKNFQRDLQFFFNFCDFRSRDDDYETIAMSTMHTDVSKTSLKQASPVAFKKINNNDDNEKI
Method in brief: as §1

Human opioid (ORL1) = biological target: T10, Human opioid (ORL1) (Homo sapiens, UniProt P41146); test: Radioligand binding, human opioid ORL1 membranes, FlashPlate, [125I]-Nociceptin; details: compound at 10 μM, [125I]-Nociceptin
T10 construct: purchased Perkin Elmer Biosignal
Method in brief: as §1

Mouse urotensin (mUR2) = biological target: T11, Mouse urotensin (mUR2) (Mus musculus, UniProt Q8VIH9); test: Radioligand binding, mouse urotensin mUR2 membranes, FlashPlate, [125I]-Urotensin II; details: compound at 10 μM, [125I]-Urotensin II
T11 construct: purchased Perkin Elmer Biosignal
T11 sequence (Q8VIH9 1-385): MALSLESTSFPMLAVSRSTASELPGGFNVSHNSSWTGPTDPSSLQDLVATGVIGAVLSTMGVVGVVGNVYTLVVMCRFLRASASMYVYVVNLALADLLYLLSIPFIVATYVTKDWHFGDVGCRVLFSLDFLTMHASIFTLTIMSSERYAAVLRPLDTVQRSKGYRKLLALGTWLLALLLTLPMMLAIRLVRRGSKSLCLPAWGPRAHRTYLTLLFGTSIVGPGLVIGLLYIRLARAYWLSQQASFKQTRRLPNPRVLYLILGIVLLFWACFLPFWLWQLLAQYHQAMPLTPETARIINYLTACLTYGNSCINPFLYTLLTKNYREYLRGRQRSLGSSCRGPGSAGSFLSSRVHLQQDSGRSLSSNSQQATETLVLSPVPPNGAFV
Method in brief: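 Cloned mouse urotensin (mUR2) receptor membranes from Perkin Elmer Biosignal were immobilized in FlashPlate microplates using a proprietary coating. Each well got 19.5 μl buffer, then 0.5 μl of DMSO, reference ligand, or compound. Adding 5 μl of [125I]-Urotensin II, diluted to 5× final concentration in binding buffer, started binding. Plates were sealed with TopSeal-A and incubated 1 hour at room temperature in the dark. Wells were counted for 30 seconds each on a TopCount after a 60-second delay, and percentage inhibition was calculated.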

T2 sequence (P41145 whole entry): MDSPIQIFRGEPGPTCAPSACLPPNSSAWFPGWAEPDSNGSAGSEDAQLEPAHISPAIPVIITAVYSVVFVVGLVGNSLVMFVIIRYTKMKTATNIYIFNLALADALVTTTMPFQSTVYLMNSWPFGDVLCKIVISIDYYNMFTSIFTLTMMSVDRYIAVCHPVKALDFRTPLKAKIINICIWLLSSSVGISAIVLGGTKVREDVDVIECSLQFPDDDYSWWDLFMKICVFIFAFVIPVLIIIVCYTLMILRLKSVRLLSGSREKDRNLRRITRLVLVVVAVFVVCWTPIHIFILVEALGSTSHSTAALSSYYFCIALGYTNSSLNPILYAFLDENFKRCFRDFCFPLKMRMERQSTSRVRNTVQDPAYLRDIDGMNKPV
T4 sequence (P32245 whole entry): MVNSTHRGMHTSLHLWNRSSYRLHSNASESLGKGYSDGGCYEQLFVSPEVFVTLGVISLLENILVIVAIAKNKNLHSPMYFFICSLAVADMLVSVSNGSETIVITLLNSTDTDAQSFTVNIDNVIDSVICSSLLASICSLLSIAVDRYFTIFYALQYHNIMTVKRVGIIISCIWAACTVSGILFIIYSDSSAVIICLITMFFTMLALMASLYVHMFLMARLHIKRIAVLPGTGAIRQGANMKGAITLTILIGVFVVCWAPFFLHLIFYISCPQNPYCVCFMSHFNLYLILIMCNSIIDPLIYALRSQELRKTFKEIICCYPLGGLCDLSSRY
T6 sequence (Q99705 whole entry): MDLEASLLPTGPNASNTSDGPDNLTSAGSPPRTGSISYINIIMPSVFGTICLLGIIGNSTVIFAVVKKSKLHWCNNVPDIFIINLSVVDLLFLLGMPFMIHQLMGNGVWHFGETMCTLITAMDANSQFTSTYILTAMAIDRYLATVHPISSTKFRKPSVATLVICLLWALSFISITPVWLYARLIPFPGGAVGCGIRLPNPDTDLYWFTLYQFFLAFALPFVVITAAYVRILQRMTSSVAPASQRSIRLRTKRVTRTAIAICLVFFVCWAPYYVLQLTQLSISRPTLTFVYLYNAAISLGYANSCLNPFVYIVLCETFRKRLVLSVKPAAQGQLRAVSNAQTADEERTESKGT
T10 sequence (P41146 whole entry): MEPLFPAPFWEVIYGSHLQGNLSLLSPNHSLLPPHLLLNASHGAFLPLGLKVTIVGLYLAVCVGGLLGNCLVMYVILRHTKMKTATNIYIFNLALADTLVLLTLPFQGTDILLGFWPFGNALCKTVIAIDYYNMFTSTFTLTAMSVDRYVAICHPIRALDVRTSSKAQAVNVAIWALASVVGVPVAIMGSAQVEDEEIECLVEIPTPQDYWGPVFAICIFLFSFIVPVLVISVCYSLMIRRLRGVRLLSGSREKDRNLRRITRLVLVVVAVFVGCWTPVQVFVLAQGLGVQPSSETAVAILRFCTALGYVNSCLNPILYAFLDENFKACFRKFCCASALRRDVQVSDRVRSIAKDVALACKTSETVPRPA
T5 sequence (P33032 whole entry): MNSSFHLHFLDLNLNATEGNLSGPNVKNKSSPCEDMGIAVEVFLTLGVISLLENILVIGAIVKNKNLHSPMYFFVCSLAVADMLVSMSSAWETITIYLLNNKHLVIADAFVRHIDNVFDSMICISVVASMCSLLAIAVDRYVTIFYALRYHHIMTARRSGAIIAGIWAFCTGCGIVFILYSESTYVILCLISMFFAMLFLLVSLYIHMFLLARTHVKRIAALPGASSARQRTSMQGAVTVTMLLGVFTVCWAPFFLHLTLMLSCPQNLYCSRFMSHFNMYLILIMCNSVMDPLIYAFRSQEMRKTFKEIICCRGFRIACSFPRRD
T1 sequence (P41143 whole entry): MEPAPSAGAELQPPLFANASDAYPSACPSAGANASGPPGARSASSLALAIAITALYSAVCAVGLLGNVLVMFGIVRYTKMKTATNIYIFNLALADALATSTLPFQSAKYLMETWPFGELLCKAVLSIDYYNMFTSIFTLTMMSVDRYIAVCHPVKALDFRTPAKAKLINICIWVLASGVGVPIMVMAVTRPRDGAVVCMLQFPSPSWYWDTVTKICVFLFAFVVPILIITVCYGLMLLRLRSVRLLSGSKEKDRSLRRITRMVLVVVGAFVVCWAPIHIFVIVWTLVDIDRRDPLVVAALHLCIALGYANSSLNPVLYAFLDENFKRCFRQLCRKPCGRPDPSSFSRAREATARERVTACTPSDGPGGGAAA
T7 sequence (P35372 whole entry): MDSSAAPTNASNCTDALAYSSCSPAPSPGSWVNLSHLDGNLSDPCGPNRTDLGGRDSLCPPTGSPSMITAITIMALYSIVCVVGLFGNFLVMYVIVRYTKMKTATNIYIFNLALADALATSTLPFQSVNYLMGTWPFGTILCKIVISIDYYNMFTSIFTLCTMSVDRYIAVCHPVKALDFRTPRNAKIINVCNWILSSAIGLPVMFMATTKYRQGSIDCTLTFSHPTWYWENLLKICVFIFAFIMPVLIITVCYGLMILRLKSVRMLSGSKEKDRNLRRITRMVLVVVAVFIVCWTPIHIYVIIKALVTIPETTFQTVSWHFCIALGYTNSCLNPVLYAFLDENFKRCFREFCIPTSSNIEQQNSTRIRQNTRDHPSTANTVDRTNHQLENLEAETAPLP
T8 sequence (P25103 whole entry): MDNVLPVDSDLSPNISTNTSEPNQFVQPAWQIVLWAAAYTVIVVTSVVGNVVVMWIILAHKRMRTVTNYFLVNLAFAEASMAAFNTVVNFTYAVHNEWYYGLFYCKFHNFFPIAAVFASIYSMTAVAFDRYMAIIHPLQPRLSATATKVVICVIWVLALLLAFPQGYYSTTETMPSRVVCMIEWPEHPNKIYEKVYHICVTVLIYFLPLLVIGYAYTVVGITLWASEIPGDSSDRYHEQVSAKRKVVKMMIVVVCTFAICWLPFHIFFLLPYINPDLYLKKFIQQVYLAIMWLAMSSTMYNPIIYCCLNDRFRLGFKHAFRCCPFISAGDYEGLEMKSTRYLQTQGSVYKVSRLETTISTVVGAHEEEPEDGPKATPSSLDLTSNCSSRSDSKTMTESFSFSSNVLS
T3 sequence (P41968 whole entry): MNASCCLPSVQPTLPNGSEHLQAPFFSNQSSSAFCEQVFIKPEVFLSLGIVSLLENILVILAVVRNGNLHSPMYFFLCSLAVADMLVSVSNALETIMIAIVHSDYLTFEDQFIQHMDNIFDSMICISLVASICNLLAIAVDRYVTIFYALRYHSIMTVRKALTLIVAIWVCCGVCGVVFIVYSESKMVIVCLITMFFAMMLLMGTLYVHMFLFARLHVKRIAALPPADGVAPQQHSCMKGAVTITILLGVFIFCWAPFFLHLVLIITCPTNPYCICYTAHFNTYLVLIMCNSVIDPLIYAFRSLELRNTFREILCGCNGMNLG

## CO[C@H]1[C@H](O)[C@@H](COCc2cccc(O)c2)OC(OCc2ccc(-c3ccccc3)cc2)[C@@H]1NC(=O)CCNC(=N)N (stereo partly shown) [compound 147]
Human δ-opioid (DOP)
  A1 radioligand binding, percentage inhibition: − (“−” indicates less than 50% inhibition at 10 μM)
Human κ-Opioid (KOP)
  A2 radioligand binding, percentage inhibition: + (“+” indicates greater than 50% inhibition at 10 μM)
Human Melanocortin (MC3)
  A3 radioligand binding, percentage inhibition: − (“−” indicates less than 50% inhibition at 10 μM)
Human Melanocortin (MC4)
  A4 radioligand binding, percentage inhibition: + (“+” indicates greater than 50% inhibition at 10 μM)
Human melanocortin (MC5)
  A5 radioligand binding, percentage inhibition: + (“+” indicates greater than 50% inhibition at 10 μM)
[1]; [125I]-S36057
  A6 radioligand binding, percentage inhibition: + (“+” indicates greater than 50% inhibition at 10 μM)
Human μ-opioid (MOP)
  A7 radioligand binding, percentage inhibition: + (“+” indicates greater than 50% inhibition at 10 μM)
Human neurokinin (NK1)
  A8 radioligand binding, percentage inhibition: + (“+” indicates greater than 50% inhibition at 10 μM)
[2]
  A9 radioligand binding, percentage inhibition: − (“−” indicates less than 50% inhibition at 10 μM)
Human opioid (ORL1)
  A10 radioligand binding, percentage inhibition: − (“−” indicates less than 50% inhibition at 10 μM)
Mouse urotensin (mUR2)
  A11 radioligand binding, percentage inhibition: − (“−” indicates less than 50% inhibition at 10 μM)

## NCC1CCC(C(=O)NC2O[C@H](CO)[C@@H](O)[C@H](OCc3cccc4ccccc34)[C@H]2NC(=O)c2ccccc2)CC1 (stereo partly shown) [compound 362]
Human δ-opioid (DOP)
  A1: inhibition of radioligand binding, human δ-opioid (DOP): − (“−” indicates less than 50% inhibition at 10 μM)
Human κ-Opioid (KOP)
  A2: inhibition of radioligand binding, human κ-opioid (KOP): − (“−” indicates less than 50% inhibition at 10 μM)
Human Melanocortin (MC3)
  A3: inhibition of radioligand binding, human melanocortin (MC3): − (“−” indicates less than 50% inhibition at 10 μM)
Human Melanocortin (MC4)
  A4: inhibition of radioligand binding, human melanocortin (MC4): − (“−” indicates less than 50% inhibition at 10 μM)
Human melanocortin (MC5)
  A5: inhibition of radioligand binding, human melanocortin (MC5): − (“−” indicates less than 50% inhibition at 10 μM)
[1]; [125I]-S36057
  A6: inhibition of radioligand binding, human melanin-concentrating hormone (MCH1): − (“−” indicates less than 50% inhibition at 10 μM)
Human μ-opioid (MOP)
  A7: inhibition of radioligand binding, human μ-opioid (MOP): − (“−” indicates less than 50% inhibition at 10 μM)
Human neurokinin (NK1)
  A8: inhibition of radioligand binding, human neurokinin (NK1): + (“+” indicates greater than 50% inhibition at 10 μM)
[2]
  A9: inhibition of radioligand binding, human neuropeptide Y (NPY-Y1): − (“−” indicates less than 50% inhibition at 10 μM)
Human opioid (ORL1)
  A10: inhibition of radioligand binding, human opioid (ORL1): − (“−” indicates less than 50% inhibition at 10 μM)
Mouse urotensin (mUR2)
  A11: inhibition of radioligand binding, mouse urotensin (mUR2): − (“−” indicates less than 50% inhibition at 10 μM)

## NCCCC(=O)NC1C(OCc2ccc3ccccc3c2)OC(COCc2ccc(Cl)cc2)C(O)C1OCc1ccc2ccccc2c1 (single isomer, unassigned) [compound 463]
Human δ-opioid (DOP); human DOP membranes
  A1: inhibition of radioligand binding: − (“−” indicates less than 50% inhibition at 10 μM)
Human κ-Opioid (KOP); human KOP membranes, 10 µM
  A2: inhibition of radioligand binding: + (“+” indicates greater than 50% inhibition at 10 μM)
Human Melanocortin (MC3); human MC3 membranes
  A3: inhibition of radioligand binding: + (“+” indicates greater than 50% inhibition at 10 μM)
Human Melanocortin (MC4); human MC4 membranes
  A4: inhibition of radioligand binding: + (“+” indicates greater than 50% inhibition at 10 μM)
Human melanocortin (MC5); human MC5 membranes
  A5: inhibition of radioligand binding: + (“+” indicates greater than 50% inhibition at 10 μM)
[1]; [125I]-S36057, human MCH1 membranes, 10 µM
  A6: inhibition of radioligand binding: + (“+” indicates greater than 50% inhibition at 10 μM)
Human μ-opioid (MOP); human MOP membranes
  A7: inhibition of radioligand binding: − (“−” indicates less than 50% inhibition at 10 μM)
Human neurokinin (NK1); human NK1 membranes
  A8: inhibition of radioligand binding: + (“+” indicates greater than 50% inhibition at 10 μM)
[2]; human NPY-Y1 membranes
  A9: inhibition of radioligand binding: − (“−” indicates less than 50% inhibition at 10 μM)
Human opioid (ORL1); human ORL1 membranes, 10 µM
  A10: inhibition of radioligand binding: − (“−” indicates less than 50% inhibition at 10 μM)
Mouse urotensin (mUR2); mouse mUR2 membranes
  A11: inhibition of radioligand binding: − (“−” indicates less than 50% inhibition at 10 μM)

## COCC1OC(OCc2ccc3ccccc3c2)C(NC(=O)CN)C(OCc2ccc(-c3ccccc3)cc2)C1O (stereo not shown) [compound 241]
Human δ-opioid (DOP); FlashPlate
  A1: inhibition of radioligand binding: − (“−” indicates less than 50% inhibition at 10 μM)
Human κ-Opioid (KOP); filtration
  A2: inhibition of radioligand binding: − (“−” indicates less than 50% inhibition at 10 μM)
Human Melanocortin (MC3); FlashPlate
  A3: inhibition of radioligand binding: − (“−” indicates less than 50% inhibition at 10 μM)
Human Melanocortin (MC4); FlashPlate
  A4: inhibition of radioligand binding: + (“+” indicates greater than 50% inhibition at 10 μM)
Human melanocortin (MC5); FlashPlate
  A5: inhibition of radioligand binding: + (“+” indicates greater than 50% inhibition at 10 μM)
[1]; [125I]-S36057, FlashPlate
  A6: inhibition of radioligand binding: − (“−” indicates less than 50% inhibition at 10 μM)
Human μ-opioid (MOP); FlashPlate
  A7: inhibition of radioligand binding: − (“−” indicates less than 50% inhibition at 10 μM)
Human neurokinin (NK1); filtration
  A8: inhibition of radioligand binding: + (“+” indicates greater than 50% inhibition at 10 μM)
[2]; FlashPlate
  A9: inhibition of radioligand binding: − (“−” indicates less than 50% inhibition at 10 μM)
Human opioid (ORL1); FlashPlate
  A10: inhibition of radioligand binding: − (“−” indicates less than 50% inhibition at 10 μM)
Mouse urotensin (mUR2); FlashPlate
  A11: inhibition of radioligand binding: − (“−” indicates less than 50% inhibition at 10 μM)

## N=C(N)NCC(=O)NC1C(OCc2ccc(Cl)cc2)OC(COCc2ccc3ccccc3c2)C(O)C1OCc1ccc2ccccc2c1 (stereo not shown) [compound 420]
Human δ-opioid (DOP); human DOP membranes
  A1: inhibition of radioligand binding: − (“−” indicates less than 50% inhibition at 10 μM)
Human κ-Opioid (KOP); human KOP membranes
  A2: inhibition of radioligand binding: − (“−” indicates less than 50% inhibition at 10 μM)
Human Melanocortin (MC3); human MC3 membranes
  A3: inhibition of radioligand binding: + (“+” indicates greater than 50% inhibition at 10 μM)
Human Melanocortin (MC4); human MC4 membranes
  A4: inhibition of radioligand binding: + (“+” indicates greater than 50% inhibition at 10 μM)
Human melanocortin (MC5); human MC5 membranes
  A5: inhibition of radioligand binding: + (“+” indicates greater than 50% inhibition at 10 μM)
[1]; [125I]-S36057, human MCH1 membranes
  A6: inhibition of radioligand binding: − (“−” indicates less than 50% inhibition at 10 μM)
Human μ-opioid (MOP); human MOP membranes
  A7: inhibition of radioligand binding: − (“−” indicates less than 50% inhibition at 10 μM)
Human neurokinin (NK1); human NK1 membranes
  A8: inhibition of radioligand binding: + (“+” indicates greater than 50% inhibition at 10 μM)
[2]; human NPY-Y1 membranes
  A9: inhibition of radioligand binding: − (“−” indicates less than 50% inhibition at 10 μM)
Human opioid (ORL1); human ORL1 membranes
  A10: inhibition of radioligand binding: + (“+” indicates greater than 50% inhibition at 10 μM)
Mouse urotensin (mUR2); mouse mUR2 membranes
  A11: inhibition of radioligand binding: − (“−” indicates less than 50% inhibition at 10 μM)
